One assay has as its target T1, Y2 receptor (Homo sapiens, UniProt P49146).
T1 sequence (P49146 1-381): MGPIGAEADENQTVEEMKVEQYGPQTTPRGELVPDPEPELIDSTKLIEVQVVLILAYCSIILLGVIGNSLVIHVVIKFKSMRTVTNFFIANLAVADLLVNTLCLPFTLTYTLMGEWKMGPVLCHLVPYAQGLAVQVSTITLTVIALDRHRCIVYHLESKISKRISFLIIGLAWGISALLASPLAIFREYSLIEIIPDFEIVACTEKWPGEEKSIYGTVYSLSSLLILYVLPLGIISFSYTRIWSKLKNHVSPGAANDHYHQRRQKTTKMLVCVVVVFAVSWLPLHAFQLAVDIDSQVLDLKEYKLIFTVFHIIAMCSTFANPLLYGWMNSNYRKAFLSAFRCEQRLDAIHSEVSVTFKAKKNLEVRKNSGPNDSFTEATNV
The assay is described as follows: Y2 receptor binding assay ([125I]PYY, membrane protein). The conditions noted are these: membrane protein, read-out: hNPY2 IC50. Here is the method:
B. Human Y2 and Y4/PP1 Receptor Binding Assays
Binding assays were performed on GF/C Millipore 96-well plates pretreated with 0.02% polyethylenimine. The binding buffer for rat Y2 binding is Krebs-Ringer bicarbonate (pH 7.4) containing 0.01% BSA and 0.005% bacitracin. Samples consist of membrane protein, 25 pM [1251]PYY and drug dilution. Nonspecific binding is defined by 1 μM NPY. The binding buffer for human Y4/PP1 binding consists of 137 mM NaCl, 5.4 mM KCl, 0.44 mM KH2PO4, 1.26 mM CaCl2, 0.81 mM MgSO4, 20 mM HEPES, 1 mM dithiothreitol, 0.1% bacitracin, 100 mg/l streptomycin sulfate, 1 mg/l aprotinin, 10 mg/ml soybean trypsin inhibitor and 0.3% BSA, pH 7.4. Samples consist of membrane protein, 50 pM human [1251]human PP (hPP: NEN DuPont, Boston, Mass.) and drug dilution. 1 μM hPP is used to define nonspecific binding.
After a 2 hour incubation at room temperature with constant mixing, the samples are aspirated on a vacuum manifold, and rinsed with ice-cold binding buffer. The amount of radioactivity in each well is quantitated with either gamma counting or liquid scintillation.

For another assay, the target named is T2, Human NPY5 receptor (Homo sapiens, UniProt Q15761).
T2 sequence (Q15761 1-445): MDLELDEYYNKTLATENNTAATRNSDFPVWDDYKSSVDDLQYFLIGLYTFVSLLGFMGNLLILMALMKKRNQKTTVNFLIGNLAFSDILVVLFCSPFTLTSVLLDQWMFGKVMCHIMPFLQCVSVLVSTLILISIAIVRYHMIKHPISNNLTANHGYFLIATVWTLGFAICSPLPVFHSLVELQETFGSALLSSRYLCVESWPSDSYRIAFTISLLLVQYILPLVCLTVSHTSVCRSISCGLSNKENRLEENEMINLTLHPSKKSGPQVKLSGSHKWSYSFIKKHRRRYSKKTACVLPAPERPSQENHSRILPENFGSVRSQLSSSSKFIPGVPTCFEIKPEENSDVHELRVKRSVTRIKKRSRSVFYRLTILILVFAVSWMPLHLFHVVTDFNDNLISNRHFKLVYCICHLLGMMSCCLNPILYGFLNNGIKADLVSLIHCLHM
Kind of assay: Human NPY5 receptor binding assay ([125I]PYY, membrane protein). The conditions noted are these: [125I]PYY binding, read-out: hNPY5 IC50. As for the experimental part: C. Human and Rat NPY5 Receptor Binding Assays
Binding assays are performed on GF/C Millipore 96well plates pretreated with 0.02% polyethylenimine. The binding buffer is 25 mM Tris, 120 mM NaCl, 5 mM KCl, 1.2 mM KH2PO4, 2.5 mM CaCl2, 1.2 mM MgSO4, 0.1% BSA and 0.5 mg/ml bacitracin, pH 7.4. Samples consist of membrane protein, 75-100 pM [125I]PYY (porcine, NEN-DuPont) and drug dilution. Nonspecific binding is defined by 1 μM PYY. After a 2 hour incubation at room temperature with constant mixing, the samples are aspirated on a vacuum manifold, and rinsed with ice-cold binding buffer. The amount of radioactivity in each well is quantitated with either gamma counting or liquid scintillation.

Structures can show the parent of a compound that is named as a salt. Where two headings read alike, the source gives them in different places.

Take “1-[(4 Benzoyl-phenylcarbamoyl)-methyl]-4-dimethylamino-piperidine-4-carboxylic acid amide [Compound 53]”: the IC50 on Y2 receptor ([125I]PYY binding) is over 5 µM; on Human NPY5 receptor, 0.44 µM.
Regarding “1-[(4-Cyclohexyl-phenylcarbamoyl)-methyl]-piperidine-4-carboxylic acid [Compound 25]”, the 50% inhibitory concentration (IC50) at Y2 receptor ([125I]PYY binding) is over 5 µM; at Human NPY5 receptor it was 1.9 µM.
The corresponding values for “2-[4-(4-Bromo-phenyl)-4-hydroxy-piperidin-1-yl]-N-(4-cyclohexyl-phenyl)-acetamide [Compound 88]” are over 5 µM and 0.12 µM.
In the case of “2-[4-(4-Chloro-phenyl)-3,6-dihydro-2H-pyridin-1-yl]-N-(4-cyclohexyl-phenyl)-acetamide [Compound 15]”, the IC50 was over 5 µM at Y2 receptor ([125I]PYY binding) and 2.7 µM at Human NPY5 receptor.
For `O=C(CN1CCN(c2ccc(Cl)cc2)CC1)Nc1ccc(C2CCCCC2)cc1` [Compound 4, 2-[4-(4-Chloro-phenyl)-piperazin-1-yl]-N-(4-cyclohexyl-phenyl)-acetamide], the 50% inhibitory concentration (IC50) at Y2 receptor ([125I]PYY binding) is over 5 µM.
For the molecule `O=C(CN1C[C@H](O)C[C@H]1C(=O)O)Nc1ccc(C2CCCCC2)cc1` [Compound 12, (4R,2S)-1-[(4-Cyclohexyl-phenylcarbamoyl)-methyl]-4-hydroxy-pyrrolidine-2-carboxylic acid], the IC50 on Human NPY5 receptor was 8.9 µM.
Same read-out and setting: for `CN(C)C1(C(N)=O)CCN(CC(=O)Nc2ccc(C3CCCCC3)cc2)CC1` [Compound 65, 1-[(4-Cyclohexyl-phenylcarbamoyl)-methyl]-4-dimethylamino-piperidine-4-carboxylic acid amide] the value was 0.69 µM.
As to `O=C(CN1CCCC1C(=O)O)Nc1ccc(C(=O)c2ccccc2)cc1` (stereo not shown) [Compound 124, 1-[(4-Benzoyl-phenylcarbamoyl)-methyl]-pyrrolidine-2-carboxylic acid], the half-maximal inhibitory concentration (IC50) on Y2 receptor ([125I]PYY binding) was over 5 µM.
With `O=C(CNC(c1ccccc1)c1ccccc1)Nc1ccc(C2CCCCC2)cc1` [Compound 131, 2-(Benzhydryl-amino)-N-(4-cyclohexyl-phenyl)-acetamide], the 50% inhibitory concentration (IC50) on Human NPY5 receptor is over 5 µM.
Take `NCCNCC1CCN(CC(=O)Nc2ccc(C(=O)c3ccccc3)cc2)CC1` [Compound 134, 2-{4-[(2-Amino-ethylamino)-methyl]-piperidin-1-yl}-N-(4-benzoyl-phenyl)-acetamide]: the IC50 on Human NPY5 receptor is over 5 µM.
As to `O=C(CN1CCCC1)Nc1ccc(C(=O)c2ccccc2)cc1` [Compound 136, N-(4-Benzoyl-phenyl)-2-pyrrolidin-1-yl-acetamide], on Human NPY5 receptor, the IC50 is over 5 µM.
Still for that read-out and setting: with `O=C(CNc1nc[nH]n1)Nc1ccc(C(=O)c2ccccc2)cc1` [Compound 137, N-(4-Benzoyl-phenyl)-2-(1H-[1,2,4]triazol-3-ylamino)-acetamide] the figure was over 5 µM; with `O=C(CNC(c1ccccc1)c1ccccc1)Nc1ccc(C(=O)c2ccccc2)cc1` [Compound 138, 2-(Benzhydryl-amino)-N-(4-benzoyl-phenyl)-acetamide], over 5 µM.
With `Cn1cccc1CCNCC(=O)Nc1ccc(C(=O)c2ccccc2)cc1` [Compound 139, N-(4-Benzoyl-phenyl)-2-[2-(1-methyl-1H-pyrrol-2-yl)-ethylamino]-acetamide], the IC50 at Human NPY5 receptor was over 5 µM.
Turning to `CCCCCCCCCCNCC(=O)Nc1ccc(C2CCCCC2)cc1` [Compound 140, N-(4-Cyclohexyl-phenyl)-2-decylamino-acetamide], the 50% inhibitory concentration (IC50) on Human NPY5 receptor was over 5 µM.
As to `O=C(CNCCCc1ccccc1)Nc1ccc(C2CCCCC2)cc1` [Compound 141, N-(4-Cyclohexyl-phenyl)-2-(3-phenyl-propylamino)-acetamide], at Human NPY5 receptor, the half-inhibitory concentration (IC50) was over 5 µM.
Consider `O=C(CNCCc1c[nH]cn1)Nc1ccc(C2CCCCC2)cc1` [Compound 142, N-(4-Cyclohexyl-phenyl)-2-[2-(1H-imidazol-4-yl)-ethylamino]-acetamide], for which the IC50 on Human NPY5 receptor was over 5 µM.
With `O=C(CNCCc1c[nH]c2ccccc12)Nc1ccc(C2CCCCC2)cc1` [Compound 143, N-(4-Cyclohexyl-phenyl)-2-[2-(1H-indol-3-yl)-ethylamino]-acetamide], the half-inhibitory concentration (IC50) at Human NPY5 receptor is over 5 µM.
Still for that read-out and setting: with `COc1ccc2[nH]cc(CCNCC(=O)Nc3ccc(C4CCCCC4)cc3)c2c1` [Compound 144, N-(4-Cyclohexyl-phenyl)-2-[2-(5-methoxy-1H-indol-3-yl)-ethylamino]-acetamide] the figure was over 5 µM.
The same measure, in the same setting: for `COc1ccc(CCNCC(=O)Nc2ccc(C3CCCCC3)cc2)cc1` [Compound 145, N-(4-Cyclohexyl-phenyl)-2-[2-(4-methoxy-phenyl)-ethylamino]-acetamide] the value was over 5 µM.
Consider `O=C(CNCCN1CCNCC1)Nc1ccc(C2CCCCC2)cc1` [Compound 146, N-(4-Cyclohexyl-phenyl)-2-(2-piperazin-1-yl-ethylamino)-acetamide], for which, at Human NPY5 receptor, the concentration for half-maximal inhibition (IC50) is over 5 µM.
Regarding `O=C(CNCCNc1ccc([N+](=O)[O-])cn1)Nc1ccc(C2CCCCC2)cc1` [Compound 147, N-(4-Cyclohexyl-phenyl)-2-[2-(5-nitro-pyridin-2-ylamino)-ethylamino]-acetamide], the IC50 at Human NPY5 receptor was over 5 µM.
As for `COc1ccccc1CNCC(=O)Nc1ccc(C2CCCCC2)cc1` [Compound 149, N-(4-Cyclohexyl-phenyl)-2-(2-methoxy-benzylamino)-acetamide], the IC50 at Human NPY5 receptor was over 5 µM.
Turning to `CCCCCCCCCCNCC(=O)Nc1ccc(C(=O)c2ccccc2)cc1` [Compound 150, N-(4-Benzoyl-phenyl)-2-decylamino-acetamide], at Human NPY5 receptor, the half-maximal inhibitory concentration (IC50) is over 5 µM.
For the molecule `O=C(CNCCCc1ccccc1)Nc1ccc(C(=O)c2ccccc2)cc1` [Compound 151, N-(4-Benzoyl-phenyl)-2-(3-phenyl-propylamino)-acetamide], on Human NPY5 receptor, the concentration for half-maximal inhibition (IC50) is over 5 µM.
With `O=C(CNCCc1c[nH]cn1)Nc1ccc(C(=O)c2ccccc2)cc1` [Compound 152, N-(4-Benzoyl-phenyl)-2-[2-(1H-imidazol-4-yl)-ethylamino]-acetamide], the IC50 on Human NPY5 receptor is over 5 µM.
Turning to `O=C(CNCCc1c[nH]c2ccccc12)Nc1ccc(C(=O)c2ccccc2)cc1` [Compound 153, N-(4-Benzoyl-phenyl)-2-[2-(1H-indo-3-yl)-ethylamino]-acetamide], at Human NPY5 receptor, the half-inhibitory concentration (IC50) is over 5 µM.
Still for that read-out and setting: with `COc1ccc(CCNCC(=O)Nc2ccc(C(=O)c3ccccc3)cc2)cc1` [Compound 155] the figure was over 5 µM; with `O=C(CNCCN1CCNCC1)Nc1ccc(C(=O)c2ccccc2)cc1` [Compound 156, N-(4-Benzoyl-phenyl)-2-(2-piperazin-1-yl-ethylamino)-acetamide], over 5 µM.
As for `O=C(CNCCNc1ccc([N+](=O)[O-])cn1)Nc1ccc(C(=O)c2ccccc2)cc1` [Compound 157, N-(4-Benzoyl-phenyl)-2-[2-(5-nitro-pyridin-2-ylamino)-ethylamino]-acetamide], the 50% inhibitory concentration (IC50) on Human NPY5 receptor was over 5 µM.
Take `O=C(CNCc1ccc2c(c1)OCO2)Nc1ccc(C(=O)c2ccccc2)cc1` [Compound 158, 2-[(Benzo[1,3]dioxol-5-ylmethyl)-amino]-N-(4-benzoyl-phenyl)-acetamide]: the IC50 on Human NPY5 receptor was over 5 µM.
Same read-out and setting: with `COc1ccccc1CNCC(=O)Nc1ccc(C(=O)c2ccccc2)cc1` [Compound 159, N-(4-Benzoyl-phenyl)-2-(2-methoxy-benzylamino)-acetamide] the figure was over 5 µM.
Take `O=C(CN1CCC(n2c(=O)[nH]c3ccccc32)CC1)NC(c1ccccc1)c1ccccc1` [Compound 322, N-Benzhydryl-2-[4-(2-oxo-2,3-dihydro-benzoimidazol-1-yl)-piperidin-1-yl]-acetamide; hydrochloride]: the IC50 at Y2 receptor ([125I]PYY) was over 5 µM.

As a reminder, the IC50 is the concentration at which inhibition is half-maximal.

These data come from US6410792B1, “Amide derivatives and methods for using the same as selective neuropeptide Y receptor antagonists” (Bayer Corporation, priority 1997, dated 2002).
